The text below walks through data of patent US7674579B2, “Apoptosis-based evaluation of chemosensitivity in cancer patients” (Yale University, priority 2003, dated 2010).

For orientation: IC50 means the concentration needed to halve the response being measured.

The test system of one experiment is CP70. Briefly: Clonogenic assay, CP70 cell line. Format: cell-based, human. As for the experimental part:
(§1) Ovarian cancer cell lines HEY (gift from Dr. J M Trent, (26)), A2780 and CP70 (gifts from Dr. T C Hamilton, (27)) were cultured at 37° C. in a 5% CO2 atmosphere. Culture medium varied with the cell line: DME/F12 plus 1% calf serum (HEY); DME/F12 plus 10% FBS, 584 ug/ml L glutamine (A2780 and CP70). All formulations contained 100 μg/ml streptomycin, 62.5 μg/ml penicillin and 2.5 μg/ml amphotericin. Primary cells were cultured in 50% 199 media and 50% MCDB 105 media (Sigma), supplemented with 10% fetal bovine serum (Hyclone, South Logan, Utah), 10 mM HEPES, 0.1 mM MEM non-essential amino acids, 1 mM sodium pyruvate, 100 nM penicili/streptomycin (Gibco) and 4 ng/ml EGF (Sigma). For drug treatments, approximately 1×10^5 cells in exponential growth were sub-cultured in a 25 cm^2 flask per treatment. Carboplatin (Sigma C2538) or paclitaxel (Sigma T7402) was added to the media after the cells reached 60-70% confluence as described in the Results.
Cells were seeded at 600 per 60 mm culture dish and incubated overnight to establish adherence then exposed to varying concentrations of drug for 4 hours. Medium was replaced and incubation was continued for 10-14 days. The cells were washed with 0.9% saline solution then fixed and stained in 72% methanol, 10% formaldehyde, 0.25% crystal violet. Colonies greater than 30 cells were counted. Percent survival was calculated based on the number of colonies in untreated dishes. Each treatment was done at least in duplicate.

The next experiment concerns HEY. Description: Clonogenic assay, HEY cell line. Format: cell-based, human. On the procedure: as §1
(§2) Cells were seeded at 600 per 60 mm culture dish and incubated overnight to establish adherence then exposed to varying concentrations of drug for 4 hours. Medium was replaced and incubation was continued for 10-14 days. […] Colonies greater than 30 cells were counted. Percent survival was calculated based on the number of colonies in untreated dishes. […]

For a further experiment, the system named is A2780. Briefly: Clonogenic assay, A2780 cell line. Format: cell-based. To be noted: Homo sapiens, clonogenic survival, 4 hours drug exposure, 10-14 days. As for the experimental part:
as §1, §2

Experiment [1] concerns CP70 cells. Description: Caspase-3 assay (dose response and time course), CP70 cells. The class given is cell-based, human. To be noted: CP70, 0.1 μM, 30 hours treatment. On the procedure: as §1, with “For drug treatments, approximately 1×10^5 cells in exponential growth were sub-cultured in a 25 cm^2 flask per treatment. Carboplatin (Sigma C2538) or paclitaxel (Sigma T7402) was added to the media after the cells reached 60-70% confluence as described in the Results.” left out
(§3) After drug treatment, cells were lysed and collected in cold 10 mM Tris, pH 7.5, 10 mM Na Phosphate buffer, 130 mM NaCl, 1% Triton X-100, 10 mM Na Pyrophosphate plus freshly added Protease Inhibitor Cocktail (20 μl/ml, Sigma P8340) and 2 MM PMSF. […] Protein concentration was determined by BioRad Protein Assay (BioRad).
(§4) Caspase-3 activity was measured in duplicate from 50 μg cell lysate samples (lysate comprised less than 20% of the total reaction volume)(Promega Corp. CaspACE™ Assay System, Colorimetric). […] Absorbance of the cleaved product was read at 405 nm in a Dynatech MR3000 plate reader. Blank values were subtracted and caspase-3 activity was expressed as the absorbance at 405 nm of the cleaved substrate (pNA). […]

Experiment [2] concerns Three established ovarian cancer cell lines and 19 ovarian cancer patient-derived cell samples. Briefly: Caspase-3 assay, distribution of apoptotic response over 22 cases. Format: cell-based, human. To be noted: of 22 cases, drugs tested separately. On the procedure: Ovarian cancer cell lines HEY (gift from Dr. J M Trent, (26)), A2780 and CP70 (gifts from Dr. T C Hamilton, (27)) were cultured at 37° C. in a 5% CO2 atmosphere. Culture medium varied with the cell line: […] All formulations contained 100 μg/ml streptomycin, 62.5 μg/ml penicillin and 2.5 μg/ml amphotericin. […] For drug treatments, approximately 1×10^5 cells in exponential growth were sub-cultured in a 25 cm^2 flask per treatment. […] With informed consent from 28 patients undergoing routine procedures at Yale-New Haven Hospital 100 to 200 ml of ascites fluid or pelvic washings were obtained. Epithelial cells were collected as previously described (28). Briefly, samples were centrifuged and the cellular pellet was resuspended in Hank's Balanced Salt Solution (HBSS; Gibco Invitrogen, Carlsbad, Calif.). The suspension was centrifuged at 1500 rpm for 10 mins at room temperature. The pellet was then resuspended in HBSS and layered onto LSM lymphocyte separation medium (ICN Biomedicals Inc, Aurora, Ill.) and centrifuged at 2000 rpm for 25 minutes at room temperature. The mononuclear cell-containing layer was collected and incubated with an anti-CD45 mAb conjugated to magnetic beads (Dynal, Oslo, Norway) at 4° C. with rotation for 30 minutes. Following this incubation, the cells were placed into a magnet and the unbound epithelial cells were collected, washed and placed into culture media. […] Remaining cells were cultured in primary culture medium as described above and evaluated for morphological evidence of malignancy by a pathologist. Viable, malignant cells were isolated from 21 of the 28 samples. In agreement with Lounis et al. (29), any fibroblastic cells in the isolated population disappeared after 2 to 3 passages and cells survived on average for 7 to 8 passages. […] Lysates were incubated on ice for 30 min, mixing every 5 min by gentle vortexing. […] Supernatants were frozen and stored at -70° C. Protein concentration was determined by BioRad Protein Assay (BioRad). […] CaspACETM Assay System, Colorimetric). […] Plates were incubated at 37° C. for 4 hr. Absorbance of the cleaved product was read at 405 nm in a Dynatech MR3000 plate reader. Blank values were subtracted and caspase-3 activity was expressed as the absorbance at 405 nm of the cleaved substrate (pNA). Drug treated samples were compared with samples which had not been treated to give a value called relative activity.

The next experiment has as its system EOC cells RI82S. Description: TUNEL assay, EOC cells R182S. Format: cell-based, human. On the procedure: (§5) To avoid loss of the apoptotic cells, which detach from monolayer culture and are washed away, cells were cultured in suspension above a one ml layer of 1% agarose per well of a 6-well plate. Two ml of cells at 1×10^5/ml growth medium were placed in each well and incubated at 37° C. with 5% CO2. Plates were agitated gently once per day. After drug exposure for 4 hr, the cells were centrifuged, resuspended in fresh medium and returned to the same wells for 48 hr. Cells were centrifuged at 1000 rpm for 10 min, resuspended in 0.5 ml 10% neutral buffered formalin and incubated at room temperature for 10 min. Centrifugation was repeated and cells were resuspended in 80% ethanol. A 25 μl aliquot was pipeted onto a glass slide and dried at room temperature until no moisture was evident. Cells were calorimetrically stained with TUNEL assay reagents (Trevigen) according to the protocol provided by the manufacturer.

Another experiment relates to EOC cells S 103. Description: TUNEL assay, EOC cells S103. Format: cell-based, human. To be noted: S 103 cells. As for the experimental part:
as §5

The subject of experiment [3] is CP70 cells. Description: Western blot for activated caspase-3, CP70 cells. The class given is cell-based, human. On the procedure:
(§6) Cells were treated with drug as described above. Cells were then scraped from the culture vessel, pelleted at 2000 rpm at room temperature and lysed in phosphate buffered saline with 1% NP40, 0.1% sodium dodecyl sulfate. After 20 min on ice, debris was removed by centrifugation at 14,000×g at 4° C.
(§7) Protein concentration was determined and 20 μg samples were denatured in sample buffer (2.5% SDS, 10% glycerol, 5% b-mercaptoethanol, 0.15 M Tris (pH 6.8) and 0.01% broinophenol blue) and subjected to 10 or 12% SDS-PAGE. Proteins were transferred to PVDF membranes (Immobilon, Millipore, Bedford, Mass.) at 100V for 105 min.
(§8) Western blots were performed as previously described (32) (28). Antibodies and concentrations were: rabbit anti-actin (Sigma, 1:10,000), rabbit anti-proform caspase-3 (Santa Cruz, Santa Cruz Calif. 1:1000), rabbit anti-cleaved-caspase-3 (CellSignaling, 1:1000). Antibody binding was determined by enhanced chemiluminescence detection of peroxidase conjugated secondary antibodies (Vector).

The test system of another experiment is EOC R182 cells. Briefly: Western blot for activated caspase-3, EOC R182 cells. The class given is cell-based, human. On the procedure:
as §6, §7, §8
For orientation: A western blot detects proteins with antibodies after separation by electrophoresis.

Experiment [4] deals with A2780 ovarian cancer cells. Description: Western blot for activated caspase-3, A2780 cells. The class given is cell-based, human. As for the experimental part: as §6, §7, §8
For the next experiment, the system named is A2780 cells. Description: Caspase-3 assay (dose response and time course), A2780 cells. The class given is cell-based, human. On the procedure: as §1, with “For drug treatments, approximately 1×10^5 cells in exponential growth were sub-cultured in a 25 cm^2 flask per treatment. Carboplatin (Sigma C2538) or paclitaxel (Sigma T7402) was added to the media after the cells reached 60-70% confluence as described in the Results.” left out
as §3, §4

Experiment [5] concerns invasive ovarian carcinoma. To be noted: of 13 patients. The source says: Patients were monitored for disease recurrence based on physical symptoms, physical examination, CA-125 levels and radiologic imaging. Chemosensitivity is defined as no evidence of disease recurrence, based on the above monitoring, within 6 months of completing the chemotherapy regimen of carboplatin and paclitaxel. Sensitivity of six months is commonly used to define which patients are platinum-sensitive in order to direct second-line therapy (30).

Take `CC(=O)O[C@H]1C(=O)[C@@]2(C)[C@H]([C@H](OC(=O)c3ccccc3)[C@]3(O)C[C@H](OC(=O)[C@H](O)[C@@H](NC(=O)c4ccccc4)c4ccccc4)C(C)=C1C3(C)C)[C@]1(OC(C)=O)CO[C@@H]1C[C@@H]2O` [Paclitaxel]: the “relative response among the three cell lines” value is “most sensitive” with CP70 (CP70 cells, clonogenic assay) and “most resistant” with HEY (HEY cells, clonogenic assay). Besides, the IC50 in the experiment on CP70 (Homo sapiens, CP70, clonogenic survival, 4 hours drug exposure, 10-14 days) was found to be 18.6 nM; in the experiment with HEY (Homo sapiens, HEY, clonogenic survival, 4 hours drug exposure, 10-14 days), 100 nM; in the experiment on A2780 it was 43.7 nM. Besides, in the experiment with CP70 cells [1], the caspase-3 activity result is recorded as “significant caspase-3 activity”. The “Number of Cases Resistant (no increase of caspase-3 activity)” value in experiment [2] was 12; in [2] (listed as paclitaxel), “Twelve”. Besides, the “Number of Cases Sensitive (increased caspase-3 activity relative to untreated samples)” value in [2] is reported as 10; in experiment [2] (listed as paclitaxel), “Ten”. Besides, the “increase in number of TUNEL-positive cells compared to the untreated controls” value with EOC cells RI82S (0.1 μM) is given as 30-40%; in the experiment with EOC cells S 103 (0.1 μM), 10-20%. Also, the “expression of the active forms of caspase-3” value was “induces the expression of the active forms of caspase-3” in the experiment on CP70 cells [3] (CP70, 0.1 μM for 30 hr); “no expression of caspase-3 active forms” in the experiment with EOC R182 cells (EOC R182, 0.1 μM for 30 hr); “high levels” in experiment [4] (A2780, paclitaxel treatment).
For the compound `N.N.O=C([O-])C1(C(=O)[O-])CCC1.[Pt+2]` [Carboplatin], the “resistance of CP70 relative to A2780” value in the experiment on CP70 (clonogenic IC50, CP70 vs A2780) was “about 25 fold”. Also, the caspase-3 activity entry is on record as “significant caspase-3 activity” in the experiment with A2780 cells (A2780, 24 hour exposure) and “Optimal activity” in the experiment with A2780 cells (A2780, 48 hour treatment, 100 μg/ml). In addition, the “Number of Cases Resistant (no increase of caspase-3 activity)” value is on record as 1 in [2] and “one” in [2] (listed as carboplatin). Besides, in experiment [2], the “Number of Cases Sensitive (increased caspase-3 activity relative to untreated samples)” value is reported as 21. Further, the “percentage of TUNEL-positive cells” value with EOC cells RI82S (100 μg/ml) was 90%. Moreover, the “percentage of cells that stain for apoptosis (TUNEL)” value in the experiment with EOC cells S 103 (100 μg/ml) came out at 30.40%. For the same compound, the “expression of the active forms of caspase-3” value in the experiment with CP70 cells [3] (CP70, 100 μg/ml for 48 hr) is “No active forms of caspase-3 are present”; in the experiment with EOC R182 cells (EOC R182, 100 μg/ml for 48 hr), “No active forms of caspase-3 are present”; in experiment [4] (A2780, carboplatin treatment), “moderate levels”.
For Carboplatin and Paclitaxel, in experiment [2], the “Number of Cases Resistant (no increase of caspase-3 activity)” value came to 1 and the “Number of Cases Sensitive (increased caspase-3 activity relative to untreated samples)” value was 10. The “number of patients clinically responsive (chemo-sensitive)” value in [5] (no evidence of disease recurrence for 6 months following completion of the regimen) was “seven”. The “number of patients chemo-resistant” value in experiment [5] (recurrence within 6 months of completing the regimen) is listed as “six”.
